# Like-named read-outs stand apart in the source and are kept apart here.
# What was measured:
# AlinCSP1 = AlinCSP1 (Adelphocoris lineolatus, UniProt J7EJ71); experiment: biochemical; type: binding
# Procedure: (§1) Fluorescence binding assays were performed on an F-380 fluorescence spectrophotometer (Tianjin, China) in a 1 cm light path quartz cuvette. The slit width used for excitation and emission was both 10 nm. The fluorescent probe N-phenyl-1-naphthylamine (1-NPN) was dissolved in methanol with a 1 mM stock solution. 1-NPN was excited at 337 nm and emission spectra were recorded between 390 nm and 530 nm.
# (§2) All values reported were obtained from three independent measurements.
# (§3) For determining binding constants, the intensity values corresponding to the maximum fluorescence emission were plotted against free ligand concentration. Bound ligand was evaluated from the values of fluorescence intensity assuming the protein was 100% active, with a stoichiometry of 1∶1 protein:ligand at saturation. The curves were linearized using Scatchard Plot.
# AlinCSP3 = AlinCSP3 (Adelphocoris lineolatus, UniProt E7BLG4); experiment: biochemical; type: binding
# Procedure: as §1, §2, §3
# AlinCSP2 = AlinCSP2 (Adelphocoris lineolatus, UniProt E7BLG5); experiment: biochemical; type: binding
# Procedure: as §1, §2, §3
# A. lineolatus antennae = experiment: Electroantennogram (EAG) recordings; design: species or system Adelphocoris lineolatus; conditions: normalized to 2-octanone; for EAG response in words: male and female adult antennae, 10% (v/v) in paraffin oil, good ligand = more than 50% of 2-octanone response; for EAG response, male versus female antennae: Student t-test between sexes
# Description: Electrophysiological (EAG) recordings from each sex of adult individuals were made using Ag-AgCl glass pipette electrodes filled with 3 M KCl solution [69], [70]. The insects were anaesthetized by chilling, the antenna was amputated at the base and the tip of the antenna was cut off. The excised antenna was mounted between the electrodes by one teardrop of Spectra R360 electrically conductive gel (Syntech, Netherlands). The base of the antenna was connected to the reference electrode, while the terminal of tip-cut off antenna was connected to the recording electrode. An air stimulus controller CS-55 (Syntech, Netherlands) was used for air and chemical stimulants delivery with a constant flow of 10 ml/second flowed continuously over the antenna through the open end of the glass tube, which was positioned 1 cm from the antenna.
# Twenty microliters of tested chemicals (100 µl/ml, 10% (v/v) dilution in paraffin oil except the hexadecanoic acid dissolved in hexane with 100 µg/ml) were applied to filter paper strips (1.5 cm×4 cm, Whatman No.1), and the solvent was allowed to evaporate for 30 sec before the paper strip was inserted into the glass Pasteur pipette cartridge (10 cm long, Fisher Scientific, Pittsburgh, Pennsylvania, USA). The chemicals were tested randomly, stimulus duration time was 0.5 second and an interval of at least 30 seconds was taken between stimulations for antennal recovery. Chemical odorants used for the EAG recordings are the same as used in the binding assays. […] The paraffin oil (Fluka, Buchs, Switzerland) was used to dissolve the chemicals and treated as control compound [71]. Each chemical was tested against six individual male and female antennae, and each antenna was tested three times. The signals were passed through a high impedance amplifier (CS-05 model, Syntech, the Netherlands), EAG responses were initially measured in millivolts (peak height of depolarization) and then converted to normalized responses by the Syntech EAG 2000 program (Syntech, the Netherlands). Response to the solvent control was subtracted from all normalized response and the normalized EAG responses were expressed as a percentage to the reference compound response. All results are presented as mean (±SE) normalized EAG responses. EAG responses between male and female individuals were compared with the Student t-test using SAS software.
# [1] = KD (µM) AlinCSP1, 1-NPN and protein at 2 µM, 50 mM Tris-HCl pH 7.4, KD calculated from IC50, mean of three measurements
# [2] = KD (µM) AlinCSP3, 1-NPN and protein at 2 µM, 50 mM Tris-HCl pH 7.4, KD calculated from IC50, mean of three measurements
# [3] = KD (µM) AlinCSP2, 1-NPN and protein at 2 µM, 50 mM Tris-HCl pH 7.4, KD calculated from IC50, mean of three measurements
# [4] = u.d. = KD not calculated because IC50>50 µM, read-out: KD (µM) AlinCSP1, given as u.d.
# [5] = u.d. = KD not calculated because IC50>50 µM, read-out: KD (µM) AlinCSP3, given as u.d.
# [6] = u.d. = KD not calculated because IC50>50 µM, read-out: KD (µM) AlinCSP2, given as u.d.
# [7] = 1-NPN and protein at 2 µM, 50 mM Tris-HCl pH 7.4, KD calculated from IC50, mean of three measurements, read-out: KD (µM) AlinCSP1
# [8] = 1-NPN and protein at 2 µM, 50 mM Tris-HCl pH 7.4, KD calculated from IC50, mean of three measurements, read-out: KD (µM) AlinCSP3
# [9] = 1-NPN and protein at 2 µM, 50 mM Tris-HCl pH 7.4, KD calculated from IC50, mean of three measurements, read-out: KD (µM) AlinCSP2
# AlinCSP2, sequence (E7BLG5 entry or part of it): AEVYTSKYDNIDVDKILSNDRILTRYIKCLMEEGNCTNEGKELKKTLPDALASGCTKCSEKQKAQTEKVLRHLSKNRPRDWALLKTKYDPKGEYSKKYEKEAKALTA
# AlinCSP1, sequence (J7EJ71 entry or part of it): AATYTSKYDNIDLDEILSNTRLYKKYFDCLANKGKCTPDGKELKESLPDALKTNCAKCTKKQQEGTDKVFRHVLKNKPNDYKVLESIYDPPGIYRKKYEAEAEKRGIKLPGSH
# AlinCSP3, sequence (E7BLG4 entry or part of it): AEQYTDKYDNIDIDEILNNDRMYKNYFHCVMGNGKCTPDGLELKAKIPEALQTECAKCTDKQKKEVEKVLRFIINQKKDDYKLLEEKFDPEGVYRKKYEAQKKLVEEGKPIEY
molecule,measurement,setting,value
O=Cc1ccccc1 [Benzaldehyde],Kd,AlinCSP1; [1],27.5 ± 1.96 µM
same,Kd,AlinCSP3; [2],24 ± 1.76 µM
same,Kd,AlinCSP2; [3],28 ± 2.11 µM
CCCCCCCCCCCC [Dodecane],Kd,AlinCSP1; [4],> 50 µM
same,Kd,AlinCSP3; [5],> 50 µM
same,Kd,AlinCSP2; [6],> 50 µM
CCC/C=C/C=O [(E)-2-Hexen-1-al],EAG response in words,A. lineolatus antennae,elicited significant antennal responses from both male and female
same,Kd,AlinCSP1; [1],11.3 ± 1.07 µM
same,Kd,AlinCSP3; [2],14.5 ± 2.59 µM
same,Kd,AlinCSP2; [3],13.2 ± 2.05 µM
"Cc1cccc(C(=O)O)c1C [2,3-Dimethylbenzoic acid]",Kd,AlinCSP1; [4],> 50 µM
same,Kd,AlinCSP3; [5],> 50 µM
same,Kd,AlinCSP2; [6],> 50 µM
CCCCCCCC [Octane],"EAG response, male versus female antennae",A. lineolatus antennae,significantly higher EAG responses from male antennae than from female antennae
same,Kd,AlinCSP1; [7],42.1 ± 1.42 µM
same,Kd,AlinCSP3; [8],45.4 ± 1.54 µM
same,Kd,AlinCSP2; [9],44.4 ± 1.36 µM
CCCCCC(C)=O [2-Heptanone],"EAG response, male versus female antennae",A. lineolatus antennae,significantly higher EAG responses from female antennae than from male antennae
same,Kd,AlinCSP1; [7],42.9 ± 2.89 µM
same,Kd,AlinCSP3; [8],41.2 ± 2.56 µM
same,Kd,AlinCSP2; [6],> 50 µM
CCCCC [Pentane],Kd,AlinCSP1; [7],42.2 ± 1.95 µM
same,Kd,AlinCSP3; [8],35.6 ± 2.61 µM
same,Kd,AlinCSP2; [9],39.5 ± 2.54 µM
CCCCCCCCCC=O [Decanal],Kd,AlinCSP1; [4],> 50 µM
same,Kd,AlinCSP3; [8],42.3 ± 2.76 µM
same,Kd,AlinCSP2; [9],45.9 ± 1.71 µM
CCCCCCOC(=O)CCC [Hexyl butyrate],Kd,AlinCSP1; [7],46.8 ± 1.85 µM
same,Kd,AlinCSP3; [5],> 50 µM
same,Kd,AlinCSP2; [6],> 50 µM
CCOC(=O)Cc1ccccc1 [Ethyl phenylacetate],Kd,AlinCSP1; [1],27.3 ± 2.02 µM
same,Kd,AlinCSP3; [2],24.4 ± 1.32 µM
same,Kd,AlinCSP2; [3],25.3 ± 1.98 µM
CCCCCCCC(C)=O [2-Nonanone],Kd,AlinCSP1; [4],> 50 µM
same,Kd,AlinCSP3; [5],> 50 µM
same,Kd,AlinCSP2; [9],42.4 ± 2.21 µM
CCCCCCCCCCC [Undecane],"EAG response, male versus female antennae",A. lineolatus antennae,significantly higher EAG responses from male antennae than from female antennae
same,Kd,AlinCSP1; [7],38.4 ± 1.54 µM
same,Kd,AlinCSP3; [5],> 50 µM
same,Kd,AlinCSP2; [9],39.6 ± 2.36 µM
C=CC(C)(O)CCC=C(C)CCC=C(C)C (mixture of isomers) [Nerolidol],Kd,AlinCSP1; [7],28.1 ± 1.26 µM
same,Kd,AlinCSP3; [8],22.4 ± 1.33 µM
same,Kd,AlinCSP2; [9],24.4 ± 1.36 µM
CCCCCCCCC [Nonane],Kd,AlinCSP1; [4],> 50 µM
same,Kd,AlinCSP3; [5],> 50 µM
same,Kd,AlinCSP2; [6],> 50 µM
CCCCC=O [Valeraldehyde],EAG response in words,A. lineolatus antennae,elicited significant antennal responses from both male and female
same,Kd,AlinCSP1; [7],17.6 ± 2.54 µM
same,Kd,AlinCSP3; [8],11.2 ± 1.52 µM
same,Kd,AlinCSP2; [9],13.4 ± 2.41 µM
COC(=O)c1ccccc1O [Methyl salicylate],EAG response in words,A. lineolatus antennae,failed to elicit high EAG response
same,Kd,AlinCSP1; [1],8.67 ± 1.92 µM
same,Kd,AlinCSP3; [2],11.8 ± 1.89 µM
same,Kd,AlinCSP2; [3],13.3 ± 1.71 µM
CCCCOC(C)=O [Butyl acetate],Kd,AlinCSP1; [1],26.6 ± 1.87 µM
same,Kd,AlinCSP3; [2],34.5 ± 2.79 µM
same,Kd,AlinCSP2; [3],41.2 ± 2.89 µM
COC(=O)Cc1ccccc1 [Methyl phenylacetate],Kd,AlinCSP1; [1],32.1 ± 1.85 µM
same,Kd,AlinCSP3; [2],22.2 ± 0.87 µM
same,Kd,AlinCSP2; [3],30.6 ± 1.92 µM
(+)-α-Pinene,Kd,AlinCSP1; [7],31.7 ± 0.98 µM
same,Kd,AlinCSP3; [8],27.2 ± 1.02 µM
same,Kd,AlinCSP2; [9],30.6 ± 0.71 µM
CCCCOC(=O)CCC [Butyl butyrate],Kd,AlinCSP1; [4],> 50 µM
same,Kd,AlinCSP3; [5],> 50 µM
same,Kd,AlinCSP2; [6],> 50 µM
CCCCCCOC(=O)CCCCC [Hexyl hexanoate],Kd,AlinCSP1; [7],44.7 ± 2.38 µM
same,Kd,AlinCSP3; [8],43.8 ± 1.98 µM
same,Kd,AlinCSP2; [6],> 50 µM
C=C/C(C)=C\CC=C(C)C [(Z)−ocimene],Kd,AlinCSP1; [7],28.6 ± 1.71 µM
same,Kd,AlinCSP3; [8],22.2 ± 1.01 µM
same,Kd,AlinCSP2; [9],25.1 ± 0.93 µM
CCCCCCCCCC [decane],"EAG response, male versus female antennae",A. lineolatus antennae,significantly higher EAG responses from female antennae than from male antennae
same,Kd,AlinCSP1; [7],44.6 ± 0.75 µM
same,Kd,AlinCSP3; [8],47.2 ± 1.18 µM
same,Kd,AlinCSP2; [9],46.4 ± 0.82 µM
CCCCCCCCCOC(C)=O [Nonyl acetate],Kd,AlinCSP1; [7],23.6 ± 1.6 µM
same,Kd,AlinCSP3; [8],46.5 ± 3.07 µM
same,Kd,AlinCSP2; [9],29.2 ± 2.19 µM

# Source: publication PMC3416781, “Functional Characterizations of Chemosensory Proteins of the Alfalfa Plant Bug Adelphocoris lineolatus Indicate Their Involvement in Host Recognition” (PLoS ONE, 2012)
